We go through 10 molecules from patent US5324648A, “Substituted isocoumarins as serine protease inhibitors and anti-inflammatory agents” (Georgia Tech Research Corporation, priority 1992, dated 1994).

Read-outs that look alike come from different tables or passages of the source.

One assay concerns the target complement protein D (Homo sapiens, UniProt P00746). Nature of the assay: Inactivation rate of complement protein D. Format: biochemical. Conditions: Table II; pH 7.5, 25° C; [I] 0.05 to 1.29 mM; read-out: kobs/[I]. On the procedure:
(§1) Inactivation rates of serine proteases by substituted isocoumarins were measured by the incubation method. An aliquot of inhibitor (25 or 50 μl) in Me2 SO was added to a buffered enzyme solution (0.01-2.3 μM) to initiate the inactivation. Aliquots (50 μl) were withdrawn at various intervals and the residual enzymatic activity was measured. Me2 SO concentration in the reaction mixture was 8-12% (v/v). 0.1 Hepes, 0.01M CaCl2, pH 7.5 buffer was utilized for trypsin and coagulation enzymes. 0.1M Hepes, 0.5M NaCl, pH 7.5 was utilized for other serine proteases. The inhibitor concentrations are shown in all the tables. Peptide thioesters or peptide nitroanilides with appropriate sequence were used as substrates for various serine proteases. All peptide thioester hydrolysis rates were measured with assay mixtures containing 4,4'-dithiodipyridine (ε324 =19800M^-1 cm^-1; Grasetti & Murray, Arch. Biochem. Biophys. 119, pp 41-49 (1967)). Peptide 4-nitroanilide nitroanilide hydrolysis was measured at 410 nm (ε410 =8800M^-1 cm^-1; Erlanger et al., Arch. Biochem. Biophys. 95, pp 271-278 (1961)). First order inactivation rate constant (kobs) were obtained from plots of ln (vt /vo) vs time, and the correlation coefficients were greater than 0.98.
(§2) ^a Conditions were 0.1M Hepes, 0.5M NaCl, pH 7.5, 8-10% Me2 SO
(§3) and 25° C. Inactivation rates were measured by incubation method.
(§4) Enzyme concentrations were as follows: protein D, 1-9 μM; C2, 0.7-1
(§5) μM; B, 1.8 μM; Bb, 0.3-0.8 μM; Cl^- s, 0.07 μM; Cl^-

The next assay deals with T1, Cl^- r (Homo sapiens, UniProt P00736).
T1 construct: Cl^- r^f
T1 sequence (P00736 464-705 limits assumed): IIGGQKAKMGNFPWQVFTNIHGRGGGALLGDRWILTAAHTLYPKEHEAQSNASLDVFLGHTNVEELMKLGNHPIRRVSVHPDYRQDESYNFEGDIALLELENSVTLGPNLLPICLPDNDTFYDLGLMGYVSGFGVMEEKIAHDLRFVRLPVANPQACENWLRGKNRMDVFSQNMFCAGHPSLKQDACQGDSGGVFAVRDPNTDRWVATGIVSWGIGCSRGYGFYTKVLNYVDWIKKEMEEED
T1 sequence (P00736 18-463 partner limits assumed): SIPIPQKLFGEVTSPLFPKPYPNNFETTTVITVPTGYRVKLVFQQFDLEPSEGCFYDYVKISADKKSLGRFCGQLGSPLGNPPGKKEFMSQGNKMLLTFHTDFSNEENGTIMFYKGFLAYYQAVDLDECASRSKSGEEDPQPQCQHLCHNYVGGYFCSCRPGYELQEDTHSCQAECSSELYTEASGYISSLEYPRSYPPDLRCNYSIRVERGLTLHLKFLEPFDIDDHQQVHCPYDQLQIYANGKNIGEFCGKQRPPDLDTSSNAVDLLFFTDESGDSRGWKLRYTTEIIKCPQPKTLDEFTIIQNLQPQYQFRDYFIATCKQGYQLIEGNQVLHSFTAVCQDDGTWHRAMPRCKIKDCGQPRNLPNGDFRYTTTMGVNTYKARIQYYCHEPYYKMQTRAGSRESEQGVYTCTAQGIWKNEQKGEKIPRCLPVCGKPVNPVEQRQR
Put plainly: Inactivation rate of complement protein C1r. Format: biochemical. The following applies: Table II; pH 7.5, 25° C; [I] 4.6 to 470 μM; read-out: kobs/[I]. On the procedure: as §1, §2, §3, §4, §5

The target in another assay is human lung tryptase. Put plainly: Inactivation rate of human lung tryptase. It counts as biochemical. Conditions: pH 7.5, 25° C. An outline of the steps: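 Incubation method in 0.1M Hepes, 0.5M NaCl, pH 7.5, 8% Me2SO, 25° C; inhibitor added to enzyme, aliquots withdrawn over time for residual activity. Substrate ZArg-SBzl (0.07 mM) with 4,4'-dithiodipyridine (0.33 mM). kobs from ln(vt/vo) vs time plots.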

In another assay the target is T2, rat skin tryptase (Rattus norvegicus, UniProt P27435).
T2 construct: from tissue; host or cells: rat skin
Nature of the assay: Inactivation rate of rat skin tryptase. It counts as biochemical. Conditions: pH 7.5, 25° C, read-out: kobs/[I]. An outline of the steps:
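Rat skin tryptase incubated with isocoumarin inhibitor in 25 mM phosphate, 0.5 M NaCl, 1 mM EDTA, pH 7.5, 8-9% Me2SO, 25 °C; aliquots withdrawn over time for residual activity on ZArg-SBzl (0.07 mM) with 4,4'-dithiodipyridine (0.33 mM). First-order kobs from ln(vt/vo) versus time.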

The target of assay [1] is recombinant human tissue plasminogen activator (Homo sapiens, UniProt P00750). Put plainly: Inactivation rate of recombinant human tissue plasminogen activator. Format: biochemical. The following applies: pH 7.5, 25° C, read-out: kobs/[I]. The gist of the method: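 Incubation method: enzyme mixed with inhibitor in Me2SO (8–12% v/v) in 0.1M Hepes, 0.5M NaCl, pH 7.5; aliquots withdrawn over time for residual activity with ZArg-SBzl (0.07 mM) plus 4,4'-dithiodipyridine (0.33 mM). kobs taken from ln(vt/vo) versus time plots.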

A short description of assay [2]: Prothrombin time (PT), human plasma.
Assay [3] has as its target T3, porcine pancreatic kallikrein (Sus scrofa, UniProt P00752).
T3 construct: from tissue; host or cells: porcine pancreas (from the name)
Put plainly: Inactivation rate of porcine pancreatic kallikrein. It counts as biochemical. Conditions: Table I, read-out: kobs/[I].

Another assay has as its target T4, cathepsin G (Homo sapiens, UniProt P08311).
T4 construct: from tissue; host or cells: human leukocytes
T4 sequence (P08311 21-255): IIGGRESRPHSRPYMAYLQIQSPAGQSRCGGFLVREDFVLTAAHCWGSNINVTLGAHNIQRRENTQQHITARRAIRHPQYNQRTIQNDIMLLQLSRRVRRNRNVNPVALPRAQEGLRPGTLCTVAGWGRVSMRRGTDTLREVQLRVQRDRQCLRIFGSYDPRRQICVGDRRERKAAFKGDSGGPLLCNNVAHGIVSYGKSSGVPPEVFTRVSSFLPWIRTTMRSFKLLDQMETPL
Nature of the assay: Inactivation of cathepsin G. Conditions: for kinact/KI: pH 7.5, 25° C, read-out: kobs/[I]. It counts as biochemical.

The target in another assay is T5, human plasmin (Homo sapiens, UniProt P00747).
T5 construct: human plasmin; from tissue; host or cells: human plasma
Put plainly: Inactivation rate of human plasmin. Format: biochemical. Conditions: read-out: kobs/[I].

Setting [4] is: pH 7.5, Table III, 25 mM phosphate, [I] 0.4 to 50 μM.
The mark [5] stands for this setting: pH 7.5, Table VI, [I] 7 to 44 μM.
Where [6] appears, read: pH 7.5, 25° C, [I] 0.4 to 300 μM.
The mark [7] stands for this setting: Table VI, pH 7.5, 25° C, [I] 4 to 330 μM.
Where [8] appears, read: pH 7.5, same concentration of enzyme and inhibitor.
Setting [9] is: pH 7.5, Table IX, [I] 0.42-0.51 μM.
Setting [10] is: pH 7.5, Table IX, [I] 3.5-5.0 μM.

T2 sequence (P27435 29-273): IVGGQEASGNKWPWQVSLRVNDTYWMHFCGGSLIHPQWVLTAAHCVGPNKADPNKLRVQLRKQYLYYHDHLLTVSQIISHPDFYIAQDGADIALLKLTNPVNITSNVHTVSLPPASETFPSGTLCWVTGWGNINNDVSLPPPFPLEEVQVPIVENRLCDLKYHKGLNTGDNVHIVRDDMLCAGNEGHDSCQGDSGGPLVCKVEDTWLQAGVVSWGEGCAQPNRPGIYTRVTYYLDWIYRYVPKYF
Chain of complement protein D (P00746 26-253): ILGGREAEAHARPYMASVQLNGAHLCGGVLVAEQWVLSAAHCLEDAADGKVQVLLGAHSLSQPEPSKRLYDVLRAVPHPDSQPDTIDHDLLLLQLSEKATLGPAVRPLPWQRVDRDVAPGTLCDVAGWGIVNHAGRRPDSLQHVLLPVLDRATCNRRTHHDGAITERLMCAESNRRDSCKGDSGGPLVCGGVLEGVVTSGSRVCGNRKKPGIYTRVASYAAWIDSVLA
T3 sequence (P00752 8-246): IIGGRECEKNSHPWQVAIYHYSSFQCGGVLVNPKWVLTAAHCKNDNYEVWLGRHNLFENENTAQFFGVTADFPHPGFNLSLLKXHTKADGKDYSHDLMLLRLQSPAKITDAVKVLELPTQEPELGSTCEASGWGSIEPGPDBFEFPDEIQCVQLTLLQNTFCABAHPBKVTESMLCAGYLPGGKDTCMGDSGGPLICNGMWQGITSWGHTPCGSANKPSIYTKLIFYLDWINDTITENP
T5 sequence (P00747 581-810 limits assumed): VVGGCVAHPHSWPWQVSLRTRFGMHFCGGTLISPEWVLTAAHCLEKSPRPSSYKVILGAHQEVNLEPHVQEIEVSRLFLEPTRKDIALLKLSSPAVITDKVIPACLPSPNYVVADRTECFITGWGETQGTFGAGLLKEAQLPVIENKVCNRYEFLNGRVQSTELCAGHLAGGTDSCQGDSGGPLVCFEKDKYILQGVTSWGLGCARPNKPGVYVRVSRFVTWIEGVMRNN
T5 sequence (P00747 97-580 partner limits assumed): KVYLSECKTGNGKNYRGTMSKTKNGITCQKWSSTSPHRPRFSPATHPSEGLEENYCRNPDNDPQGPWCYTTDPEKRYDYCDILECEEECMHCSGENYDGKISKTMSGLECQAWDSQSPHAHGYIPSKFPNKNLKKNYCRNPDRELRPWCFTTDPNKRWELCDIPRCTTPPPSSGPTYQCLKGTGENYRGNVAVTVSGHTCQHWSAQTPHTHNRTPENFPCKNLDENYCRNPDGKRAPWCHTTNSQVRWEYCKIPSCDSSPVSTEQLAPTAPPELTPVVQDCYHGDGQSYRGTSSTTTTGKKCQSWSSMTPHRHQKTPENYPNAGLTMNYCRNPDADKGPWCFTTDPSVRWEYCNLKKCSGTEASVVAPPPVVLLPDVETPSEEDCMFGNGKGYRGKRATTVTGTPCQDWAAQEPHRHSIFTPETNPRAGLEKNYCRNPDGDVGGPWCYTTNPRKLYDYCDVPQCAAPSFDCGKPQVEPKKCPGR
Chain of recombinant human tissue plasminogen activator (P00750 36-562): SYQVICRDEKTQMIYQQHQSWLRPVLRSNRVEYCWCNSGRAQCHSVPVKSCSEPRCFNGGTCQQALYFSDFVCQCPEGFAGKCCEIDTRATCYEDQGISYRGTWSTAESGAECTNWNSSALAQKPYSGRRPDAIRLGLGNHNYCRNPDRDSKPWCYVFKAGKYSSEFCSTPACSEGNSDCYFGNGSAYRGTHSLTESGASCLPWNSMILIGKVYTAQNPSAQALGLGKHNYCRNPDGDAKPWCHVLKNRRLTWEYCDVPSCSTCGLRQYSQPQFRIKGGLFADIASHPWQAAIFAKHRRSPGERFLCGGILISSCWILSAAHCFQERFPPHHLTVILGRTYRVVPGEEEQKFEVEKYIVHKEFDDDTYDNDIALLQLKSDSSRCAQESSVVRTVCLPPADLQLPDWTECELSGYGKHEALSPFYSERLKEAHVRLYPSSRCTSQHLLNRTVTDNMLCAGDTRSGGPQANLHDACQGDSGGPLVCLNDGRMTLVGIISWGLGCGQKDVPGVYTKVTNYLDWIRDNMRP

`O=c1oc(Cl)c(Cl)c2ccccc12` [3,4-dichloroisocoumarin, reference compound]: the kinact/KI on complement protein D was found to be 192 M⁻¹ s⁻¹; at Cl^- r it was 42 M⁻¹ s⁻¹; at rat skin tryptase (setting [4]), 610 M⁻¹ s⁻¹; in [1] (setting [5]), 73 M⁻¹ s⁻¹. Further, the “kobs/[I]” value on human lung tryptase (Table III, [I] 0.4 to 50 μM) is 185 M⁻¹ s⁻¹. This molecule also showed a PT in [2] ([I] 33 μM) of 12.4 s.
As for `N=C(N)SCCOc1oc(=O)c2ccccc2c1Cl` [3-(2-isothiureidoethoxy)-4-chloroisocoumarin], the kinact/KI in assay [3] (setting [6]) came to 12000 M⁻¹ s⁻¹; at complement protein D it was 61 M⁻¹ s⁻¹; at cathepsin G (Table IV, [I] 0.002 to 0.35 mM) it was 110 M⁻¹ s⁻¹.
As for `NCCCOc1oc(=O)c2ccccc2c1Cl` [3-(3-aminopropoxy)-4-chloroisocoumarin], the kinact/KI in [3] (setting [6]) came to 860 M⁻¹ s⁻¹; on rat skin tryptase (setting [4]), 8370 M⁻¹ s⁻¹; on cathepsin G (Table IV, [I] 0.002 to 0.35 mM), 260 M⁻¹ s⁻¹; on human plasmin (setting [7]), 770 M⁻¹ s⁻¹; in assay [1] (setting [5]), 94 M⁻¹ s⁻¹. Moreover, on human lung tryptase (Table III, [I] 0.4 to 50 μM), the “kobs/[I]” value is 2,000 M^-1 s^-1.
With `N=C(N)SCCCOc1oc(=O)c2ccccc2c1Cl` [3-(3-isothiureidopropoxy)-4-chloroisocoumarin], the kinact/KI in [3] (setting [6]) was found to be 19000 M⁻¹ s⁻¹; at complement protein D, 145 M⁻¹ s⁻¹; at Cl^- r, 6610 M⁻¹ s⁻¹; at rat skin tryptase (setting [4]), 53000 M⁻¹ s⁻¹; at cathepsin G (Table IV, [I] 0.002 to 0.35 mM), 83 M⁻¹ s⁻¹; in assay [1] (setting [5]), 4690 M⁻¹ s⁻¹. In addition, at human lung tryptase (Table III, [I] 0.4 to 50 μM), the “kobs/[I]” value is 64,000 M^-1 s^-1. In [2] ([I] 31 μM), the PT was determined as 12.3 s.
In the case of `N=C(N)SCCCOc1oc(=O)c2cc(N)ccc2c1Cl` [7-amino-4-chloro-3-(3-isothiureidopropoxy)isocoumarin], the kinact/KI was above 110000 M⁻¹ s⁻¹ in assay [3] (setting [8]); 55 M⁻¹ s⁻¹ at complement protein D; 1320 M⁻¹ s⁻¹ at Cl^- r; 63000 M⁻¹ s⁻¹ at rat skin tryptase (setting [4]); 39000 M⁻¹ s⁻¹ at rat skin tryptase (setting [9]); 36 M⁻¹ s⁻¹ at cathepsin G (Table IV, [I] 0.002 to 0.35 mM). The kinact/KI on human plasmin (setting [7]) is 4340 M⁻¹ s⁻¹; in assay [1] (setting [10]), 13000 M⁻¹ s⁻¹; in assay [1] (setting [5]), 5690 M⁻¹ s⁻¹. Further, the “kobs/[I]” value on human lung tryptase (Table III, [I] 0.4 to 50 μM) is listed as 28,000 M^-1 s^-1; at human lung tryptase (Table IX, [I] 0.42-0.47 μM) it was 19,000 M^-1 s^-1. In addition, the PT in [2] ([I] 29 μM) came to 19.4 s.
On to `CCOc1oc(=O)c2cc(NC(=N)N)ccc2c1Cl` [7-guanidino-3-ethoxy-4-chloroisocoumarin, 7-guanidino-4-chloro-3-ethoxyisocoumarin], for which the kinact/KI in assay [3] (setting [8]) is above 200000 M⁻¹ s⁻¹; at complement protein D it was 193 M⁻¹ s⁻¹; on Cl^- r, 239 M⁻¹ s⁻¹; on rat skin tryptase (setting [4]), 82000 M⁻¹ s⁻¹; at cathepsin G (Table IV, [I] 0.002 to 0.35 mM) it was 84000 M⁻¹ s⁻¹; at human plasmin (setting [7]), 12300 M⁻¹ s⁻¹. Moreover, the kinact/KI in assay [1] (setting [5]) was determined as 7720 M⁻¹ s⁻¹. Moreover, on human lung tryptase (Table III, [I] 0.4 to 50 μM), the “kobs/[I]” value was 61,000 M^-1 s^-1. The PT in [2] ([I] 21 μM) was 22.4 s; in [2] ([I] 53 μM), 31.4 s; in assay [2] ([I] 75 μM) it was 44.2 s; in assay [2] ([I] 107 μM), 80 s.
Usually inhibition stands for the change of the read-out against control, counted positive when it falls. Higher therefore signals a strong effect. As for `COc1cc2ccc(NC(=N)N)cc2c(=O)o1` [7-guanidino-3-methoxyisocoumarin], the kinact/KI in assay [3] (setting [6]) amounted to 1900 M⁻¹ s⁻¹; at human plasmin (setting [7]) it was 320 M⁻¹ s⁻¹. On cathepsin G (Table IV, not time dependent, at 0.49 mM), this molecule returned an inhibition at 490 µM of 81%.
As to `N=C(N)Nc1ccc2c(Cl)c(OCCc3ccccc3)oc(=O)c2c1` [7-guanidino-4-chloro-3-(2-phenylethoxy)isocoumarin], the kinact/KI in [3] (setting [8]) is 200000 M⁻¹ s⁻¹; at complement protein D it was 92 M⁻¹ s⁻¹; on Cl^- r, 342 M⁻¹ s⁻¹; on rat skin tryptase (setting [4]) it was 86000 M⁻¹ s⁻¹; on cathepsin G (Table IV, [I] 0.002 to 0.35 mM), 66000 M⁻¹ s⁻¹; on human plasmin (setting [7]), 4140 M⁻¹ s⁻¹. Also, in assay [1] (setting [5]), the kinact/KI was 6780 M⁻¹ s⁻¹. Moreover, the “kobs/[I]” value on human lung tryptase (Table III, [I] 0.4 to 50 μM) was 56,000 M^-1 s^-1. The same molecule showed a PT in assay [2] ([I] 27 μM) of 13.0 s.
In the case of `COc1oc(=O)c2cc(NC(=N)N)ccc2c1Cl` [7-guanidino-4-chloro-3-methoxyisocoumarin], the kinact/KI in assay [3] (pH 7.5, progress curve method) is 45000 M⁻¹ s⁻¹; on complement protein D, 252 M⁻¹ s⁻¹; on Cl^- r, 75 M⁻¹ s⁻¹; on rat skin tryptase (setting [4]), 52000 M⁻¹ s⁻¹; at cathepsin G (Table IV, [I] 0.002 to 0.35 mM), 11000 M⁻¹ s⁻¹; on human plasmin (setting [7]) it was 3500 M⁻¹ s⁻¹. For the same molecule, the kinact/KI in assay [1] (setting [5]) came out at 4420 M⁻¹ s⁻¹. Further, on human lung tryptase (Table III, [I] 0.4 to 50 μM), the “kobs/[I]” value is 20,000 M^-1 s^-1. The PT in assay [2] ([I] 21 μM) worked out at 16.5 s.
In the case of `N=C(N)SCCOc1oc(=O)c2cc(NC(=O)Nc3ccccc3)ccc2c1Cl` [PhNHCONH-CiTEtOIC, 7-(phenylcarbamoylamino)-4-chloro-3-(2-isothiureidoethoxy)isocoumarin], at human lung tryptase (Table IX, [I] 0.42-0.47 μM), the “kobs/[I]” value is reported as 170,000 M^-1 s^-1. The kinact/KI on rat skin tryptase (setting [9]) came out at 170000 M⁻¹ s⁻¹; on cathepsin G (Table X, [I] 33-46 μM), 100 M⁻¹ s⁻¹; at human plasmin (Table IX, 0.01M CaCl2, pH 7.5, 25° C, [I] 8.3-41 μM) it was 32000 M⁻¹ s⁻¹; in assay [1] (setting [10]) it was 16000 M⁻¹ s⁻¹.
